Measurements taken from patent US10709132B2, “Microbicidal composition” (DDP SPECIALTY ELECTRONIC MATERIALAS US, INC., priority 2015, dated 2020).
Like-named read-outs stand apart in the source and are kept apart here.

Tests used:
Assay type in all cases: cell-based
[1] = tested on: Aspergillus brasiliensis ATCC #16404; assay: Synergy test by MIC in 96 well microtiter plates, mold; details: ATCC16404, 168 h, A. brasiliensis, contact time 7 days, 25° C., potato dextrose broth, read-out: MIC of compound acting alone (CA / CB)
Description: (§1) DMO with Pine oil was evaluated for synergy by determining the synergy index (S.I.) of the combination. Incubation temperature for bacteria was 30° C. and for fungi was 25° C. Synergy index was calculated based on minimum inhibitory concentrations (MIC) of two antimicrobial compounds (CA and CB) alone and in combinations (Ca and Cb). The test organisms were gram negative bacteria (Pseudomonas aeruginosa ATCC #15442), gram positive bacteria (Staphylococcus aureus ATCC #6538), and yeast (Candida albicans ATCC #10231) and mold (Aspergillus brasiliensis ATCC #16404). The test was carried out in 96 well microtiter plates. Contact time for the bacteria and yeast was 24 and 48 hours, and contact time for mold was 3 and 7 days. […] SI is calculated as follows: Ca/CA+Cb/CB=Synergy Index (“SI”) Wherein: • CA=concentration of compound A in ppm, acting alone, which produced an end point (MIC of Compound A). • Ca=concentration of compound A in ppm, in the mixture, which produced an end point. • CB=concentration of compound B in ppm, acting alone, which produced an end point (MIC of Compound B). • Cb=concentration of compound B in ppm, in the mixture, which produced an end point. When the sum of Ca/CA and Cb/CB is greater than one, antagonism is indicated. […] [table] [table] [table]

[2] = tested on: Candida albicans ATCC #10231; assay: Synergy test by MIC in 96 well microtiter plates, yeast; details: ATCC10231, C. albicans, 25° C., potato dextrose broth, read-out: MIC of compound acting alone (CA / CB)
Description: as §1

[3] = tested on: Staphylococcus aureus ATCC #6538; assay: Synergy test by MIC in 96 well microtiter plates, gram positive bacteria; details: ATCC6538, S. aureus, 30° C., 10% tryptic soy broth, read-out: MIC of compound acting alone (CA / CB)
Description: as §1

## CC1(C)COCN1 [DMO, 4,4-dimethyloxazolidine]
[1]
  MIC: 500 µg/mL
[2]; contact time 24 hrs
  MIC: 1000 µg/mL
[2]; contact time 48 hrs
  MIC: 1000 µg/mL
[3]; contact time 24 hrs
  MIC: 75 µg/mL
[3]; contact time 48 hrs
  MIC: 75 µg/mL
